Source: paper PMC8496750, “Identification of the organic anion transporting polypeptides responsible for the hepatic uptake of the major metabolite of epyrifenacil, S‐3100‐CA, in mice” (Pharmacology Research & Perspectives, 2021)

Legend:
human OATP1B1 = molecular target: T1, human OATP1B1 (Homo sapiens, UniProt Q9Y6L6); assay: Uptake assay for radiolabeled substrates, human OATP1B1 expressing 293FT cells; format: in vitro ADME; settings: for Ratio of uptake amount relative to the uptake into mock cells: 10‐min incubation
T1 construct: expressed in transfected cells; host or cells: 293FT cells
T1 sequence (Q9Y6L6 1-691): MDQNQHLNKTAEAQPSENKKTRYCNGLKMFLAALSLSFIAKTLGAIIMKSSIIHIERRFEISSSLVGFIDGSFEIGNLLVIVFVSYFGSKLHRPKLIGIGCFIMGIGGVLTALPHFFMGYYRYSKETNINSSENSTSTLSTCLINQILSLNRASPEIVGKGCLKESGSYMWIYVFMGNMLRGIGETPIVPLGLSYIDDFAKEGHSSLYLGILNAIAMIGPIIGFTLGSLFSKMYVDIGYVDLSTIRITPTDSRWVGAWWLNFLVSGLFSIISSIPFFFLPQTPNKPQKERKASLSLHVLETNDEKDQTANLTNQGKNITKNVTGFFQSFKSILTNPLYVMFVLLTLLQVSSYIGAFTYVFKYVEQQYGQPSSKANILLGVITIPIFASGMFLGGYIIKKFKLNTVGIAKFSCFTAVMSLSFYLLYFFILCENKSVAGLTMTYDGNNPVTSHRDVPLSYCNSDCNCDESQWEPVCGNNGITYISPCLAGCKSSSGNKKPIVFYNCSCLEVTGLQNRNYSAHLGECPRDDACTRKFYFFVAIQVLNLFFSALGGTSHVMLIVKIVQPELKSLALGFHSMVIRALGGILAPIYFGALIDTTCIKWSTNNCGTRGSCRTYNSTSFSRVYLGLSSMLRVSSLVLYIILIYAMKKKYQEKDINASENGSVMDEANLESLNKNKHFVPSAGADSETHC
Procedure: (§1) 293FT cells were purchased from Thermo Fisher Scientific, Inc.. The cells were grown in Dulbecco's modified Eagle medium (supplemented with 4.5 g/L glucose and 2 mM L‐glutamine) at 37°C, 5% CO2, and 95% humidity. The cells were passaged 3 times per week by harvesting cells using trypsin and plating at a density of 1.0 × 10^4 cells/cm^2 in a 10 cm cell culture plate for maintenance culture. The 293FT cells were detached using trypsin and re‐seeded at a density of 2.5 × 10^4 cells/cm^2 in BioCoat™ Collagen I 6‐well plates (Corning Inc.) for transfection and then treated with 1.2 μg of plasmid vector and 3.2 μl of Lipofectamine™ 2000 Transfection Reagent (Thermo Fisher Scientific, Inc.) according to the manufacturer's instructions. After a 3‐h treatment, the transfection medium was replaced with a fresh cell culture medium and incubated at 37°C with 95% humidity and 5% CO2 until ready for the assay.
(§2) Transport experiments were conducted approximately 24 h post‐transfection. The experiments were initiated by aspirating culture medium and addition of pre‐warmed radiolabeled substrate solution (final 1.0% of acetonitrile or 0.9% of ethanol in phosphate‐buffered saline (PBS[−])) to each well. After a 10‐min incubation, cells were washed twice with 1 ml of ice‐cold PBS(−) and lysed with 700 μl of 1.0 M NaOH for 3 h or more at room temperature. The lysate was transferred to a 1.5‐ml tube, and neutralized with 350 μl of 2.0 M HCl and 350 μl of 2.0% sodium dodecyl sulfate (SDS) solution. From the lysate, 1.0 ml was transferred to a vial containing 10 ml of Emulsifier Scintillator Plus to measure the radioactivity in the LSC. The protein concentration of the cell lysate was also measured using a Pierce™ BCA Protein Assay Kit (Thermo Fisher Scientific, Inc.), which was used to normalize, according to the cell number, the radioactivity in the cell lysate extract. The protein assay was performed in duplicate. Each sample type was assayed in triplicate wells, and each run was performed twice. When the difference in mean uptake between OATP expressing cells and mock cells was more than 2 times, the OATP was judged to be involved in transportation of the substrate. […] Each sample type was assayed in triplicate wells.

mouse Oatp1a1 = molecular target: T2, mouse Oatp1a1 (Mus musculus, UniProt Q9QXZ6); assay: Uptake assay for radiolabeled substrates, mouse Oatp1a1 expressing 293FT cells; format: in vitro ADME; parameters: expressed in transfected cells; host or cells: 293FT cells; settings: for Ratio of uptake amount relative to the uptake into mock cells: 10‐min incubation
T2 sequence (Q9QXZ6 1-670): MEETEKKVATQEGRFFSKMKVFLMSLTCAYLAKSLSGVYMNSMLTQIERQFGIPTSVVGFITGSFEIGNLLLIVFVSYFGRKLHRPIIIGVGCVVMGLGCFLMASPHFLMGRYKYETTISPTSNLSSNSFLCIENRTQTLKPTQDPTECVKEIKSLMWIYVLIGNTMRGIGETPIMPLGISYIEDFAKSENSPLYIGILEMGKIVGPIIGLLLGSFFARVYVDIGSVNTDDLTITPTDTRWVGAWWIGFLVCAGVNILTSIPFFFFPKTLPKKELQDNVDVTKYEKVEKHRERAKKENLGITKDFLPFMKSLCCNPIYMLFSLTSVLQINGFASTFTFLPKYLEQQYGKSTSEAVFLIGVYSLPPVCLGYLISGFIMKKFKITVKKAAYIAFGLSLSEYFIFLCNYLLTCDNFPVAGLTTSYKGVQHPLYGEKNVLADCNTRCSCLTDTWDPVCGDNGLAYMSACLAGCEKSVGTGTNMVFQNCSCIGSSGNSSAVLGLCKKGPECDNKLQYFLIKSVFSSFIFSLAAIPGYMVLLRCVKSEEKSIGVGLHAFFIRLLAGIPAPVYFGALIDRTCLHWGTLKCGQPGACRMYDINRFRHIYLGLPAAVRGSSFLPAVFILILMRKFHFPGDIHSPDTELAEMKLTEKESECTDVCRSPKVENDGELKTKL
Procedure: as §1, §2

| Compound | Ratio of uptake amount relative to the uptake into mock cells (human OATP1B1; Run_1, mean of 3 replicates) | Ratio of uptake amount relative to the uptake into mock cells (human OATP1B1; Run_2, mean of 3 replicates) | Ratio of uptake amount relative to the uptake into mock cells (mouse Oatp1a1; Run_1) | Ratio of uptake amount relative to the uptake into mock cells (mouse Oatp1a1; Run_2) | Uptake, times higher than in mock cells (human OATP1B1) [times] | Uptake, times higher than in mock cells (mouse Oatp1a1) [times] |
| --- | --- | --- | --- | --- | --- | --- |
| Cn1c(C(F)(F)F)cc(=O)n(-c2cc(Oc3cccnc3OCC(=O)O)c(Cl)cc2F)c1=O [S‐3100‐CA] | 5.7 | 6.2 | 3.3 | 4.3 | – | – |
| C[C@]12CC[C@@H]3c4ccc(O)cc4CC[C@H]3[C@@H]1CC[C@@H]2O[C@@H]1O[C@H](C(=O)O)[C@@H](O)[C@H](O)[C@H]1O [E217βG, Estradiol 17β‐D‐glucuronide] | 48.2 | 55.6 | 84.9 | 62.2 | > 50 | > 50 |
| C[C@]12CC[C@@H]3c4ccc(OS(=O)(=O)O)cc4CC[C@H]3[C@@H]1CCC2=O [E3S, Estrone 3‐sulfate] | 69.9 | 81.9 | 23.4 | 34.4 | > 50 | – |
